Active and inactive are the calls of the source. The rule behind the calls is not given here.
Tests used:
LNCaP [1] = test: Reduction in mitochondrial membrane potential in human LNCaP cells assessed as reduction in tubular structure at 20 to 50 uM after 24 hrs by Hoechst 33342/MTG staining-based by fluorescence assay; format: functional, cell-based; settings: dose microM 20-50, time 24.0 hrs
LNCaP [2] = test: Cell cycle arrest in human LNCaP cells assessed as accumulation of cells at M phase at 20 to 50 uM after 24 hrs by DAPI staining-based fluorescence assay; format: functional; settings: dose microM 20-50, time 24.0 hrs
LNCaP [3] = test: Cell cycle arrest in human LNCaP cells assessed as accumulation of cells at G2 phase at 20 to 50 uM after 24 hrs by DAPI staining-based fluorescence assay; format: functional; settings: dose microM 20-50, time 24.0 hrs
LNCaP [4] = test: Cell cycle arrest in human LNCaP cells assessed as cell death at 20 to 50 uM after 24 hrs in presence of 6AA by DAPI staining-based fluorescence assay; format: functional; settings: dose microM 20-50, time 24.0 hrs
LNCaP [5] = test: Cell cycle arrest in human LNCaP cells assessed as cell death at 20 to 50 uM after 24 hrs in presence of VINB by DAPI staining-based fluorescence assay; format: functional; settings: dose microM 20-50, time 24.0 hrs
LNCaP [6] = test: Reduction in mitochondrial membrane potential in human LNCaP cells assessed as mitochondrial morphological change at 50 uM after 24 hrs by Hoechst 33342/MTG staining-based by fluorescence assay; format: functional, cell-based

Row | Compound | Activity (LNCaP [1]) | Activity (LNCaP [2]) | Activity (LNCaP [3]) | Activity (LNCaP [4]) | Activity (LNCaP [5]) | Activity (LNCaP [6])
1 | COC1=C(Br)C[C@@]2(OC=C1Br)ON=C(C(=O)NCCCOc1c(Br)cc(CCN(C)C(=O)C(C)(C)C)cc1Br)[C@H]2OC(=O)C(C)(C)C | Active | Active | Active |  |  | 
2 | COC1=C(Br)C[C@@]2(OC=C1Br)ON=C(C(=O)NCCCOc1c(Br)cc(CCN(C)C(=O)Nc3cccc(OC)c3OC)cc1Br)[C@H]2O |  | inactive | inactive |  |  | 
3 | COC1=C(Br)C[C@@]2(OC=C1Br)ON=C(C(=O)NCCCOc1c(Br)cc(CCN(C)C(=O)NCc3ccc(OC)cc3)cc1Br)[C@H]2O |  | inactive | inactive |  |  | 
4 | CCCCNC(=O)N(C)CCc1cc(Br)c(OCCCNC(=O)C2=NO[C@]3(CC(Br)=C(OC)C(Br)=CO3)[C@@H]2O)c(Br)c1 | Active | Active | Active | Active | Active | 
5 | COC1=C(Br)C[C@@]2(OC=C1Br)ON=C(C(=O)NCCCOc1c(Br)cc(CCN(C)C(=O)NC3CCCC3)cc1Br)[C@H]2O |  | Active | Active |  |  | 
6 | COC1=C(Br)C[C@@]2(OC=C1Br)ON=C(C(=O)NCCCOc1c(Br)cc(CCN(C)C(=O)Nc3ccccc3)cc1Br)[C@H]2OC(=O)c1ccccc1 |  | inactive | inactive |  |  | 
7 | COC1=C(Br)C[C@@]2(OC=C1Br)ON=C(C(=O)NCCCOc1c(Br)cc(CCN(C)C(=O)NCCc3ccc(F)cc3)cc1Br)[C@H]2O |  | Active | Active |  |  | 
8 | COC1=C(Br)C[C@@]2(OC=C1Br)ON=C(C(=O)NCCCOc1c(Br)cc(CCN(C)C(=O)Nc3ccc(C(C)=O)cc3)cc1Br)[C@H]2O |  | Active | Active |  |  | 
9 | COC1=C(Br)C[C@@]2(OC=C1Br)ON=C(C(=O)NCCCOc1c(Br)cc(CCN(C)C(=O)C(C)(C)C)cc1Br)[C@H]2O | Active | Active | Active | Active | Active | 
10 | CNCCc1cc(Br)c(OCCCNC(=O)C2=NO[C@]3(CC(Br)=C(OC)C(Br)=CO3)[C@@H]2O)c(Br)c1 | Active | Active | Active |  |  | Active
11 | C=CCNC(=O)N(C)CCc1cc(Br)c(OCCCNC(=O)C2=NO[C@]3(CC(Br)=C(OC)C(Br)=CO3)[C@@H]2O)c(Br)c1 | Active | Active | Active |  |  | 

— ChEMBL document CHEMBL4665706, “Synthesis of a Unique Psammaplysin F Library and Functional Evaluation in Prostate Cancer Cells by Multiparametric Quantitative Single Cell Imaging” (J Nat Prod, 2020)
